Source: publication PMC9295122, “Sialic Acid Derivatives Inhibit SiaT Transporters and Delay Bacterial Growth” (ACS Chemical Biology, 2022)

How the values were obtained:
P. mirabilis HI4320 = test: Growth in carbon-limited MM with inhibitor only, P. mirabilis; format: cell-based, Proteus mirabilis; conditions: MM with sodium citrate, compound 0.5 mM
Experimental: (§1) We first addressed whether these bacteria were able to catabolize the inhibitors and potentially use them as a carbon source for growth. Each strain was grown in carbon-limited defined minimal media (MM), without any carbon source other than sodium citrate for P. mirabilis and casamino acids for S. aureus, and supplemented with 3e and 3f. […] With these promising results, bacterial growth assays were performed in MM supplemented with Neu5Ac at a concentration of 3.2 mM and with 0.5 mM of compounds 3e and 3f (Figure 6a,b). The lag phase duration was determined as the time for the initial population density to increase twofold (see the horizontal dashed lines in Figure 6a,b). The effects were significant in the case of S. aureus, where a delayed growth of 4.4 and 9.4 h (P < 0.001) for compounds 3e and 3f, respectively, was observed. In the case of P. mirabilis, compound 3e indicated a delay in growth (3 h, P = 0.06), while no effect was recorded for compound 3f.
Figure S4. S. aureus COL (A) and P. mirabilis HI4320 (B) grown in defined carbon-limited minimal media (dotted line), with the addition of compound 3e (0.5 mM, solid line) or compound 3f (0.5 mM, dashed line). Average values of two biological replicates (n=2) each including two technical replicates are presented.
(1 picture or pasted object on this page, not shown here)

S. aureus strain COL = test: Bacterial growth assay in MM with Neu5Ac, S. aureus; format: cell-based, Staphylococcus aureus; conditions: MM + Neu5Ac 3.2 mM, compound 0.5 mM, P < 0.001
Experimental: To investigate the efficacy of compounds 3e and 3f in inhibiting the uptake of Neu5Ac, bacterial growth assays were performed on a uropathogenic P. mirabilis strain HI4320 and a clinical HA-MRSA isolate S. aureus strain COL. The goal was to verify that compounds 3e and 3f alter bacterial growth when grown on Neu5Ac as an additional carbon source. Growth alteration would indicate Neu5Ac uptake impairment, thus validating our approach.
as §1, with “Figure 6a,b). […] In the” for “Figure 6a,b). The effects were significant in the case of S. aureus, where a delayed growth of 4.4 and 9.4 h (P < 0.001) for compounds 3e and 3f, respectively, was observed. In the”, “compound 3f. […]” for “compound 3f.”

| SMILES | ability to catabolize compound (growth vs MM only) (P. mirabilis HI4320) | delayed growth (lag phase) (S. aureus strain COL) [h] |
| --- | --- | --- |
| CC(=O)NC1C(OCc2cc(F)cc(F)c2)CC(O)(C(=O)O)OC1C(O)C(O)CO (stereo not shown) [Compound 3e] | no ability to catabolize | 4.4 |
| CC(=O)NC1C(OCc2cc(Br)cc(Br)c2)CC(O)(C(=O)O)OC1C(O)C(O)CO (stereo not shown) [Compound 3f] | no ability to catabolize | 9.4 |
